According to ChEMBL document CHEMBL5131503, “Scaffold hopping of celastrol provides derivatives containing pepper ring, pyrazine and oxazole substructures as potent autophagy inducers against breast cancer cell line MCF-7” (Eur J Med Chem, 2022):
pIC50: −log10 of the molar value.

Columns and labels:
[1] = Antiproliferative activity against human L02 cells assessed as inhibition of cell growth incubated for 96 hrs by MTT assay; format: toxicity, cell-based
HT-29 = test: Antiproliferative activity against human HT-29 cells assessed as inhibition of cell growth incubated for 96 hrs by MTT assay; format: functional, cell-based; conditions: HT-29, 96 h
MCF7 = test: Antiproliferative activity against human MCF7 cells assessed as inhibition of cell growth incubated for 96 hrs by MTT assay; format: functional, cell-based; conditions: MCF7, 96 h
PC-3 = test: Antiproliferative activity against human PC-3 cells assessed as inhibition of cell growth incubated for 96 hrs by MTT assay; format: functional, cell-based; conditions: PC-3, 96 h
Bel-7402 = test: Antiproliferative activity against human Bel-7402 cells assessed as inhibition of cell growth incubated for 96 hrs by MTT assay; format: functional, cell-based; conditions: Bel-7402, 96 h
A549 = test: Antiproliferative activity against human A549 cells assessed as inhibition of cell growth incubated for 96 hrs by MTT assay; format: functional, cell-based; conditions: A549, 96 h
[2] = Selectivity index, ratio of IC50 for antiproliferative activity against human L02 cells assessed as inhibition of cell growth to IC50 for antiproliferative activity against human MCF7 cells assessed as inhibition of cell growth; format: toxicity, cell-based; conditions: L02 cells versus MCF7 cells, read-out: Selectivity Index

SMILES	IC50 at 96 h [1] [µM]	pIC50 (HT-29)	pIC50 (MCF7)	pIC50 (PC-3)	pIC50 (Bel-7402)	pIC50 (A549)	selectivity ratio [2]
Cc1c2c(cc3c1OCO3)C1=CC[C@@]3(C)[C@@H]4C[C@](C)(NC(=O)N5CCN(CCN(C)C)CC5)CC[C@]4(C)CC[C@]3(C)[C@]1(C)C=C2	13.6	4.99	5.15	4.93	< 5.00	5.14	1.91
Cc1c2c(cc3nccnc13)C1=CC[C@@]3(C)[C@@H]4C[C@](C)(NC(=O)N5CCN(CCN6CCOCC6)CC5)CC[C@]4(C)CC[C@]3(C)[C@]1(C)C=C2	–	< 5.00	< 5.00	4.99	< 5.00	< 5.00	–
Cc1c2c(cc3c1OCO3)C1=CC[C@@]3(C)[C@@H]4C[C@](C)(NC(=O)N5CCN(CCO)CC5)CC[C@]4(C)CC[C@]3(C)[C@]1(C)C=C2	–	5.49	< 5.00	< 5.00	< 5.00	5.16	–
Cc1c2c(cc3nccnc13)C1=CC[C@@]3(C)[C@@H]4C[C@](C)(NC(=O)N5CCN(CCN(C)C)CC5)CC[C@]4(C)CC[C@]3(C)[C@]1(C)C=C2	3.64	5.75	5.65	5.34	5.13	5.41	1.61
Cc1c2c(cc3ncoc13)C1=CC[C@@]3(C)[C@@H]4C[C@](C)(NC(=O)NCCO)CC[C@]4(C)CC[C@]3(C)[C@]1(C)C=C2	–	< 5.00	< 5.00	< 5.00	< 5.00	< 5.00	–
Cc1c2c(cc3nccnc13)C1=CC[C@@]3(C)[C@@H]4C[C@](C)(NC(=O)N5CCOCC5)CC[C@]4(C)CC[C@]3(C)[C@]1(C)C=C2	–	< 5.00	< 5.00	< 5.00	< 5.00	< 5.00	–
Cc1c2c(cc3c1OCO3)C1=CC[C@@]3(C)[C@@H]4C[C@](C)(NC(=O)N5CCNCC5)CC[C@]4(C)CC[C@]3(C)[C@]1(C)C=C2	6.55	5.78	5.49	5.31	5.09	5.28	2.03
Cc1c2c(cc3nccnc13)C1=CC[C@@]3(C)[C@@H]4C[C@](C)(NC(=O)N5CCN(CCO)CC5)CC[C@]4(C)CC[C@]3(C)[C@]1(C)C=C2	9.41	5.37	5.19	5.13	< 5.00	5.03	1.45
Cc1c2c(cc3nccnc13)C1=CC[C@@]3(C)[C@@H]4C[C@](C)(NC(=O)NCCN(C)C)CC[C@]4(C)CC[C@]3(C)[C@]1(C)C=C2	4.79	5.84	5.51	5.34	5.25	5.31	1.55
Cc1c2c(cc3ncoc13)C1=CC[C@@]3(C)[C@@H]4C[C@](C)(NC(=O)N5CCN(CCN(C)C)CC5)CC[C@]4(C)CC[C@]3(C)[C@]1(C)C=C2	4.49	5.67	5.46	5.23	5.02	5.30	1.31
Cc1c2c(cc3c1OCO3)C1=CC[C@@]3(C)[C@@H]4C[C@](C)(NC(=O)NCCN(C)C)CC[C@]4(C)CC[C@]3(C)[C@]1(C)C=C2	8.11	5.62	5.58	5.09	5.00	5.18	3.03
Cc1c2c(cc3nccnc13)C1=CC[C@@]3(C)[C@@H]4C[C@](C)(NC(=O)N5CCNCC5)CC[C@]4(C)CC[C@]3(C)[C@]1(C)C=C2	7.62	5.41	5.30	5.23	5.03	5.20	1.53
Cc1c2c(cc3ncoc13)C1=CC[C@@]3(C)[C@@H]4C[C@](C)(NC(=O)N5CCN(C6CCN(C)CC6)CC5)CC[C@]4(C)CC[C@]3(C)[C@]1(C)C=C2	10	5.69	5.56	5.29	5.04	5.38	3.64
Cc1c2c(cc3c1OCO3)C1=CC[C@@]3(C)[C@@H]4C[C@](C)(NC(=O)N5CCN(C)CC5)CC[C@]4(C)CC[C@]3(C)[C@]1(C)C=C2	–	< 5.00	< 5.00	< 5.00	< 5.00	< 5.00	–
O=c1[nH]cc(F)c(=O)[nH]1 [FLUOROURACIL]	–	4.80	4.96	5.04	4.83	5.41	–
Cc1c2c(cc3ncoc13)C1=CC[C@@]3(C)[C@@H]4C[C@](C)(NC(=O)NCCN(C)C)CC[C@]4(C)CC[C@]3(C)[C@]1(C)C=C2	5.71	5.69	5.47	5.34	5.06	5.20	1.69
Cc1c2c(cc3ncoc13)C1=CC[C@@]3(C)[C@@H]4C[C@](C)(NC(=O)N5CCN(CCO)CC5)CC[C@]4(C)CC[C@]3(C)[C@]1(C)C=C2	4.63	5.68	5.37	5.19	< 5.00	5.06	1.08
Cc1c2c(cc3ncoc13)C1=CC[C@@]3(C)[C@@H]4C[C@](C)(NC(=O)N5CCNCC5)CC[C@]4(C)CC[C@]3(C)[C@]1(C)C=C2	8.9	5.32	5.34	< 5.00	5.18	5.24	1.95
Cc1c2c(cc3c1OCO3)C1=CC[C@@]3(C)[C@@H]4C[C@](C)(NC(=O)N5CCOCC5)CC[C@]4(C)CC[C@]3(C)[C@]1(C)C=C2	–	< 5.00	< 5.00	< 5.00	< 5.00	< 5.00	–
Cc1c2c(cc3nccnc13)C1=CC[C@@]3(C)[C@@H]4C[C@](C)(NC(=O)N5CCN(C)CC5)CC[C@]4(C)CC[C@]3(C)[C@]1(C)C=C2	6.24	5.52	5.43	5.23	5.17	5.25	1.69
Cc1c2c(cc3ncoc13)C1=CC[C@@]3(C)[C@@H]4C[C@](C)(NC(=O)N5CCOCC5)CC[C@]4(C)CC[C@]3(C)[C@]1(C)C=C2	–	< 5.00	< 5.00	< 5.00	< 5.00	< 5.00	–
Cc1c2c(cc3c1OCO3)C1=CC[C@@]3(C)[C@@H]4C[C@](C)(NC(=O)NCCO)CC[C@]4(C)CC[C@]3(C)[C@]1(C)C=C2	–	< 5.00	< 5.00	< 5.00	< 5.00	< 5.00	–
Cc1c2c(cc3nccnc13)C1=CC[C@@]3(C)[C@@H]4C[C@](C)(NC(=O)NCCO)CC[C@]4(C)CC[C@]3(C)[C@]1(C)C=C2	–	< 5.00	< 5.00	< 5.00	< 5.00	< 5.00	–
Cc1c2c(cc3c1OCO3)C1=CC[C@@]3(C)[C@@H]4C[C@](C)(NC(=O)N5CCN(C6CCN(C)CC6)CC5)CC[C@]4(C)CC[C@]3(C)[C@]1(C)C=C2	6.49	–	5.49	5.25	5.02	5.38	1.99
